Source: PubChem BioAssay AID192 (DTP/NCI, 2004)
Values joined by “and” are separate entries in the source; they are usually repeats but may differ in a detail not shown here. Equal values may be shown once. Inconclusive results and toxic doses are left out. How the source made its calls: active means survival T/C of 150% or more; inactive means T/C below 125% in these data. Numbered stars: 1 amine (or outer) side, 2 acyl side, 3 side chain; on linkers, the order of the positions; unused ones are H or OH. Bridge positions count the residues as written; N and C are the ends. Square brackets hold non-standard residues; d marks the D form. Peptide text beside a SMILES is read from it. I, II: the chains in the order shown. * marks the point of attachment. Actinocin(1to9) = Cc1c2oc3c(C)ccc(C(=O)[*:2])c3nc-2c(C(=O)[*:1])c(N)c1=O; NMeV = CN[CH](C(=O)O)C(C)C; Cbz = O=C(OCc1ccccc1)*; Aze = O=C(O)[CH]1CCN1; Sar = CNCC(=O)O

Tested on: BDF1 mice, B16 melanoma ip, median survival T/C
Assay: NCI In Vivo Anticancer Drug Screen. Data for tumor model B16 Melanoma (intraperitoneal) in B6D2F1 (BDF1) mice
Settings: endpoint: median survival time, higher = longer survival
Method in brief: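 Read-out: survival or tumor size, given as treated/control ratio. Controls received vehicle only; animals bore transplantable tumors.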

[1] = dose: 100.0 mg/kg/injection, schedule: Q01DX009 (ip), vehicle: Klucel (hydroxypropylcellulose) (HPC)
[2] = dose: 200.0 mg/kg/injection, schedule: Q01DX009 (ip), vehicle: Klucel (hydroxypropylcellulose) (HPC)
[3] = dose: 400.0 mg/kg/injection, schedule: Q01DX009 (ip), vehicle: Klucel (hydroxypropylcellulose) (HPC)
[4] = dose: 12.5 mg/kg/injection, schedule: Q01DX009 (ip), vehicle: Klucel (hydroxypropylcellulose) (HPC)
[5] = dose: 25.0 mg/kg/injection, schedule: Q01DX009 (ip), vehicle: Klucel (hydroxypropylcellulose) (HPC)
[6] = dose: 50.0 mg/kg/injection, schedule: Q01DX009 (ip), vehicle: Klucel (hydroxypropylcellulose) (HPC)
[7] = dose: 12.5 mg/kg/injection, schedule: Q01DX009 (ip), vehicle: saline with Tween-80
[8] = dose: 25.0 mg/kg/injection, schedule: Q01DX009 (ip), vehicle: saline with Tween-80
[9] = dose: 100.0 mg/kg/injection, schedule: Q01DX009 (ip), vehicle: saline with Tween-80
[10] = dose: 50.0 mg/kg/injection, schedule: Q01DX009 (ip), vehicle: saline with Tween-80
[11] = dose: 100.0 mg/kg/injection, schedule: Q01DX009 (ip), vehicle: other
[12] = dose: 0.75 mg/kg/injection, schedule: Q01DX009 (ip), vehicle: saline
[13] = dose: 1.5 mg/kg/injection, schedule: Q01DX009 (ip), vehicle: saline
[14] = dose: 100.0 mg/kg/injection, schedule: Q01DX009 (ip), vehicle: saline
[15] = dose: 100.0 mg/kg/injection, schedule: Q04DX003 (ip), vehicle: Klucel (hydroxypropylcellulose) (HPC)

Measured: T/C

Cc1c2oc3c(C)ccc(C(=O)NC4C(=O)NC(C(C)C)C(=O)N5CCCC5C(=O)N(C)CC(=O)N(C)C(C(C)C)C(=O)OC4C)c3nc-2c(C(=O)NC2C(=O)NC(C(C)C)C(=O)N3CCC3C(=O)N(C)CC(=O)N(C)C(C(C)C)C(=O)OC2C)c(N)c1=O (centres undefined) (I: TV[Aze][Sar][NMeV] / II: TVP[Sar][NMeV]; ester I:1-I:C, II:1-II:C; linker I:N-II:N via Actinocin(1to9); configuration not given here)
inactive: dose: 19.4 micrograms/kg/injection, schedule: Q01DX009 (ip), vehicle: saline + alcohol 107 % of control
active: dose: 0.23 mg/kg/injection, schedule: Q01DX009 (ip), vehicle: saline + alcohol 172 % of control | dose: 0.3 mg/kg/injection, schedule: Q04DX003 (ip), vehicle: saline + alcohol 163 % of control | dose: 37.0 micrograms/kg/injection, schedule: Q01DX009 (ip), vehicle: saline + alcohol 182 % of control | dose: 75.0 micrograms/kg/injection, schedule: Q01DX009 (ip), vehicle: saline + alcohol 156 % of control and 190 % of control | dose: 100.0 micrograms/kg/injection, schedule: Q01DX009 (ip), vehicle: saline + alcohol 151 % of control | dose: 150.0 micrograms/kg/injection, schedule: Q01DX009 (ip), vehicle: saline + alcohol 159 % of control | dose: 250.0 micrograms/kg/injection, schedule: Q01DX009 (ip), vehicle: saline + alcohol 153 % of control

C=CCc1ccccc1C
inactive: [1] 104 % of control | [2] 105 % of control | [3] 90 % of control

NC(=S)Nc1cccc(Cl)c1
inactive: [4] 106 % of control | [5] 102 % of control | [6] 100 % of control

O=C(NC1CCc2ccccc21)c1ccccc1 (centres undefined)
inactive: dose: 6.25 mg/kg/injection, schedule: Q01DX009 (ip), vehicle: saline with Tween-80 100 % of control | [7] 92 % of control | [8] 91 % of control and 95 % of control | [9] 90 % of control

O=C(O)C1C(C(=O)O)C2(Cl)C(Cl)=C(Cl)C1(Cl)C2(Cl)Cl.[Fe] (centres undefined)
inactive: [8] 93 % of control | [10] 95 % of control | [9] 93 % of control

ClC(Cl)=C(Cl)Cl
inactive: [7] 105 % of control | [8] 98 % of control | [6] 101 % of control | [10] 93 % of control | [1] 99 % of control | [9] 92 % of control | [2] 98 % of control | [3] 88 % of control

CCCCCCCCCCCCCC(=O)CCC
inactive: [5] 105 % of control | [6] 101 % of control | [11] 88 % of control

CCOC(=O)C(CC)(CCC(C)C)C(=O)OCC
inactive: [8] 102 % of control | [10] 99 % of control | [9] 97 % of control

Cc1ccc(S(=O)(=O)[O][Pb]([CH3])([CH3])[CH3])cc1
inactive: dose: 0.18 mg/kg/injection, schedule: Q01DX009 (ip), vehicle: saline 97 % of control | dose: 0.37 mg/kg/injection, schedule: Q01DX009 (ip), vehicle: saline 92 % of control | [12] 104 % of control | [13] 97 % of control

O=C1C=CC(=O)C2=C1CCCC2
inactive: dose: 2.9 mg/kg/injection, schedule: Q01DX009 (ip), vehicle: saline with Tween-80 87 % of control | dose: 4.5 mg/kg/injection, schedule: Q01DX009 (ip), vehicle: saline with Tween-80 87 % of control

Nc1nc(N=Nc2ccc(O)cc2)cc(=O)[nH]1
inactive: [11] 109 % of control | dose: 200.0 mg/kg/injection, schedule: Q01DX009 (ip), vehicle: other 105 % of control | dose: 400.0 mg/kg/injection, schedule: Q01DX009 (ip), vehicle: other 87 % of control

NC(CCC(=O)O)C(=O)NC(CCC(=O)O)C(=O)O (stereo not drawn) (H-Glu-Glu-OH; configuration not given here)
inactive: dose: 50.0 mg/kg/injection, schedule: Q01DX009 (ip), vehicle: saline 97 % of control | [14] 96 % of control | dose: 200.0 mg/kg/injection, schedule: Q01DX009 (ip), vehicle: saline 93 % of control | dose: 400.0 mg/kg/injection, schedule: Q01DX009 (ip), vehicle: saline 91 % of control

Cc1ccc(C2NC(=O)c3ccccc3N2)c(C)c1 (centres undefined)
inactive: [1] 109 % of control | [2] 109 % of control | [3] 109 % of control

COc1cc2c(c(OC)c1OC)-c1ccc(OC)c(=O)cc1[C@@H](NC(=O)c1ccccc1)CC2
active: dose: 1.0 mg/kg/injection, schedule: Q01DX009 (ip), vehicle: Klucel (hydroxypropylcellulose) (HPC) 173 % of control and 190 % of control | dose: 2.0 mg/kg/injection, schedule: Q01DX009 (ip), vehicle: Klucel (hydroxypropylcellulose) (HPC) 156 % of control and 161 % of control

CC(C)n1c(=S)[nH]c2ccccc2c1=O
inactive: dose: 16.5 mg/kg/injection, schedule: Q01DX009 (ip), vehicle: saline with Tween-80 102 % of control | [8] 94 % of control | dose: 37.5 mg/kg/injection, schedule: Q01DX009 (ip), vehicle: saline with Tween-80 100 % of control | [1] 95 % of control | [9] 87 % of control | [14] 117 % of control | [2] 90 % of control

CCCNC1=C(N2CC2)C(=O)C(NCCC)=C(N2CC2)C1=O
inactive: dose: 1.25 mg/kg/injection, schedule: Q01DX009 (ip), vehicle: saline 108 % of control

CC(NC(=O)C(Cc1ccc(O)cc1)NC(=O)C(C)NC(=O)OCc1ccccc1)C(=O)O (stereo not drawn) (Cbz-Ala-Tyr-Ala-OH; configuration not given here)
inactive: [10] 98 % of control | [9] 93 % of control | dose: 200.0 mg/kg/injection, schedule: Q01DX009 (ip), vehicle: saline with Tween-80 96 % of control | dose: 400.0 mg/kg/injection, schedule: Q01DX009 (ip), vehicle: saline with Tween-80 92 % of control

O=S1(=O)CC(Cl)C(Cl)C1 (centres undefined)
inactive: dose: 3.12 mg/kg/injection, schedule: Q01DX009 (ip), vehicle: Klucel (hydroxypropylcellulose) (HPC) 91 % of control | [4] 96 % of control

CC1=CC(=O)[C@@H](O)[C@]2(C)[C@H]3[C@@]4(O)OC[C@]35[C@H]([C@@H](C)[C@H]4O)[C@@H](O)C(=O)O[C@@H]5C[C@@H]12
inactive: [12] 107 % of control | [13] 109 % of control | dose: 3.0 mg/kg/injection, schedule: Q01DX009 (ip), vehicle: saline 117 % of control | dose: 6.0 mg/kg/injection, schedule: Q01DX009 (ip), vehicle: saline 108 % of control

C=C(C)C(=O)OCC1CO1 (centres undefined)
inactive: [6] 102 % of control | [1] 100 % of control | [2] 109 % of control

Cc1ccc(C2CC3c4ccccc4C2C2CCCCN32)cc1 (centres undefined)
inactive: dose: 0.78 mg/kg/injection, schedule: Q01DX009 (ip), vehicle: water 112 % of control | dose: 1.56 mg/kg/injection, schedule: Q01DX009 (ip), vehicle: water 104 % of control | dose: 3.13 mg/kg/injection, schedule: Q01DX009 (ip), vehicle: water 99 % of control and 115 % of control | dose: 6.25 mg/kg/injection, schedule: Q01DX009 (ip), vehicle: water 107 % of control and 110 % of control | dose: 12.5 mg/kg/injection, schedule: Q01DX009 (ip), vehicle: water 102 % of control | dose: 25.0 mg/kg/injection, schedule: Q01DX009 (ip), vehicle: water 98 % of control

CCN(CC)CCOc1ccc(Br)cc1
inactive: [4] 96 % of control | [6] 87 % of control and 98 % of control

CCOC(=O)C1CN(S(=O)(=O)c2ccc(C)cc2)c2ccccc2C(=O)C1/C(=C/C(=O)OC)C(=O)OC (centres undefined)
inactive: [15] 92 % of control | dose: 200.0 mg/kg/injection, schedule: Q04DX003 (ip), vehicle: Klucel (hydroxypropylcellulose) (HPC) 90 % of control | dose: 400.0 mg/kg/injection, schedule: Q04DX003 (ip), vehicle: Klucel (hydroxypropylcellulose) (HPC) 88 % of control

O=C1C=C(N2CC2)c2ccccc2C1=O
inactive: dose: 5.0 mg/kg/injection, schedule: Q01DX009 (ip), vehicle: saline with Tween-80 105 % of control | dose: 10.0 mg/kg/injection, schedule: Q01DX009 (ip), vehicle: saline with Tween-80 100 % of control

O=C(/C=C/c1ccncc1)c1ccccc1
inactive: dose: 12.5 mg/kg/injection, schedule: Q04DX003 (ip), vehicle: Klucel (hydroxypropylcellulose) (HPC) 93 % of control | dose: 25.0 mg/kg/injection, schedule: Q04DX003 (ip), vehicle: Klucel (hydroxypropylcellulose) (HPC) 110 % of control | dose: 50.0 mg/kg/injection, schedule: Q04DX003 (ip), vehicle: Klucel (hydroxypropylcellulose) (HPC) 103 % of control | [15] 99 % of control

CCCCCCN(CCCCCC)CC(O)c1ccc2c3c(cccc13)CC2 (centres undefined)
inactive: [6] 105 % of control | [1] 98 % of control | [2] 101 % of control

NC(=O)N1c2ccccc2C=Cc2ccccc21
inactive: [4] 112 % of control | [5] 100 % of control | [6] 106 % of control | [1] 91 % of control | [2] 90 % of control
